Results taken from patent publication US20250313548A1 (Actio Biosciences, Inc., priority 2023, published 2025).

target: human, KCNT1 (Homo sapiens (Human), UniProt Q5JUK3); assay: FLIPR Tl/K Flux Assay; format: cell-based; details: HEK293 cells stably expressing human KCNT1; Tl+ flux stimulated with EC80 of agonist Loxapine
Outline: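 Inhibition values come from a Hill-equation fit of % inhibition versus log concentration, using normalized fluorescence (Fmax/Fmin) over a 160 s read. The read followed stimulation with Tl+ plus EC80 agonist loxapine after 30 min compound pre-incubation at 25 °C. Cells were KCNT1-expressing HEK293, dye-loaded 1 h in pH 7.4 HEPES/HBSS with 5 mM probenecid.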

Sequence of human, KCNT1 (Q5JUK3 whole entry): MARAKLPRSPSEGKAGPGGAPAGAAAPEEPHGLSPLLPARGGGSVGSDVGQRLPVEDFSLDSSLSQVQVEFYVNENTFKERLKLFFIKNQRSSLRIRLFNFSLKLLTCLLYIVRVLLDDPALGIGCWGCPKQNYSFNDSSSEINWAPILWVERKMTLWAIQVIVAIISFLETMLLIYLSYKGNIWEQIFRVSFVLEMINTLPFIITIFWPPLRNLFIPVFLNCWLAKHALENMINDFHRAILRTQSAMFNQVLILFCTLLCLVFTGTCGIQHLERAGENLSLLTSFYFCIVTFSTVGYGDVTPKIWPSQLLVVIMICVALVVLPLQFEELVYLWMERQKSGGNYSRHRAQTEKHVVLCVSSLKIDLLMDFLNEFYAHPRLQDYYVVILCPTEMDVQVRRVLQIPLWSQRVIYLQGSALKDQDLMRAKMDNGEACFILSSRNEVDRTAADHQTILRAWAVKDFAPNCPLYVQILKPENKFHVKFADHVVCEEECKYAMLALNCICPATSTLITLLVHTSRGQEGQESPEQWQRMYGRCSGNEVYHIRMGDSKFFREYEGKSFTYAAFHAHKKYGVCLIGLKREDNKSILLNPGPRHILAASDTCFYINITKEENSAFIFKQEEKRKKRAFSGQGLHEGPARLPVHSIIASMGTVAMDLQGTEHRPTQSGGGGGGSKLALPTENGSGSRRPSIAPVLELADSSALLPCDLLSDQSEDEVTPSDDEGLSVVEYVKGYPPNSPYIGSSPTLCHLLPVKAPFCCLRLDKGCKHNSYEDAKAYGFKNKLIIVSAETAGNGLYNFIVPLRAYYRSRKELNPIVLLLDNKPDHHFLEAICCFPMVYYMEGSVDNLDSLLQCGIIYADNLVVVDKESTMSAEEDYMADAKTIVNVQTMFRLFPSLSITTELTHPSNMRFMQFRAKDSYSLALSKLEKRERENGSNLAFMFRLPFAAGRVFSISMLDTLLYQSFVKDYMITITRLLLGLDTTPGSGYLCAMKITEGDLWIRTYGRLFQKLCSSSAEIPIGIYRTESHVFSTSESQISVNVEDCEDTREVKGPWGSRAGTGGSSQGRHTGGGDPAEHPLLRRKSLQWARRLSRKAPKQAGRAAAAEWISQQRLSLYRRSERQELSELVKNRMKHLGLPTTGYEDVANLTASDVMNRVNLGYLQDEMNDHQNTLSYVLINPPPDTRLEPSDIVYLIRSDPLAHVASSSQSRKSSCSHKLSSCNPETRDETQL

Compound	IC50
O=C(N[C@@H]1CCCc2nc(-c3cc(C4CC4)ncc3F)oc21)c1cncc(C(F)(F)F)n1 [Compound I-511b]	> 1000 nM
Cc1cc(C#N)cc(C(=O)N[C@H]2CCn3nc(-c4cc(C(F)(F)F)ncc4F)cc32)c1 [Compound I-140a]	< 250 nM
Cn1nc(C(F)(F)F)cc1C(=O)N[C@H]1CC(C)(C)Cn2nc(-c3ccnc(C(F)(F)F)c3)cc21 [Compound I-219a, (S)—N-(6,6-Dimethyl-2-(2-(trifluoromethyl)pyridin-4-yl)-4,5,6,7-tetrahydropyrazolo[1,5-a]pyridin-4-yl)-1-methyl-3-(trifluoromethyl)-1H-pyrazole-5-carboxamide]	> 1000 nM
Cn1nc(C(F)(F)F)cc1C(=O)N[C@H]1CCCc2cnc(-c3ccnc(C(F)(F)F)c3)nc21 [Compound I-452a]	250 to 500 nM
CC(F)(F)c1cc(-c2nc3c(o2)CCC[C@@H]3NC(=O)c2cccc(F)c2)ccn1 [Compound I-508a, (S)—N-(2-(2-(1,1-difluoroethyl)pyridin-4-yl)-4,5,6,7-tetrahydrobenzo[d]oxazol-4-yl)-3-fluorobenzamide]	< 250 nM
O=C(N[C@H]1CCCn2nc(-c3ccnc(C(F)(F)F)c3)cc21)c1cnn2cc(F)ccc12 [Compound I-408a]	< 250 nM
O=C(N[C@H]1CCCc2oc(-c3cc(C4CC4)ncc3F)nc21)c1cncc(C(F)(F)F)n1 [Compound I-208a, (S)-N-(2-(2-Cyclopropyl-5-fluoropyridin-4-yl)-4,5,6,7-tetrahydrobenzo[d]oxazol-4-yl)-6-(trifluoromethyl)pyrazine-2-carboxamide]	< 250 nM
O=C(N[C@@H]1CCc2nn(-c3ccnc(C(F)(F)F)c3)cc21)c1ccccc1 [Compound I-91b]	> 1000 nM
COc1cc(-c2cc3n(n2)CCC[C@@H]3NC(=O)c2cc(Cl)cc(C(F)(F)F)c2)ccn1 [Compound I-354a]	< 250 nM
Cn1nc(C(F)(F)F)cc1C(=O)N[C@H]1CCCc2sc(-c3ccnc(C(F)(F)F)c3)cc21 [Compound I-79a]	< 250 nM
Cc1cnc(C(F)(F)F)cc1-c1cc2n(n1)CC[C@H]2NC(=O)c1nc(C(F)(F)F)nn1C [Compound I-482b]	500 to 1000 nM
N#Cc1cccc(C(=O)N[C@H]2CCCn3nc(-c4ccnc(C(F)(F)F)c4)cc32)c1 [Compound I-128a, (S)-3-Cyano-N-(2-(2-(trifluoromethyl)pyridin-4-yl)-4,5,6,7-tetrahydropyrazolo[1,5-a]pyridin-4-yl)benzamide]	< 250 nM
Cc1c(C(F)(F)F)nn(C)c1C(=O)N[C@H]1CCc2nn(-c3ccnc(C(F)(F)F)c3)cc21 [Compound I-386a]	> 1000 nM
O=C(N[C@H]1CCCc2cnc(-c3ccnc(C(F)(F)F)c3)cc21)c1cncc(C(F)(F)F)n1 (single isomer, unassigned) [I-270*]	> 1000 nM
O=C(N[C@H]1CCCc2oc(-c3ccnc(C4CC4)c3)nc21)c1cccc(F)c1 [Compound I-131a, (S)-N-(2-(2-Cyclopropylpyridin-4-yl)-4,5,6,7-tetrahydrobenzo[d]oxazol-4-yl)-3-fluorobenzamide]	< 250 nM
O=C(N[C@H]1CCn2nc(-c3ccnc(C(F)(F)F)c3)cc21)C12CC(C(F)(F)F)(C1)C2 [Compound I-138a, (S)-3-(Trifluoromethyl)-N-(2-(2-(trifluoromethyl)pyridin-4-yl)-5,6-dihydro-4H-pyrrolo[1,2-b]pyrazol-4-yl)bicyclo[1.1.1]pentane-1-carboxamide]	< 250 nM
O=C(N[C@H]1CCn2nc(-c3ccnc(C4CC4)c3)cc21)c1ccnc(OC(F)(F)F)c1 [Compound I-543a, (S)-N-(2-(2-Cyclopropylpyridin-4-yl)-5,6-dihydro-4H-pyrrolo[1,2-b]pyrazol-4-yl)-2-(trifluoromethoxy)isonicotinamide]	< 250 nM
Cn1nc(C(F)(F)F)cc1CC(=O)N[C@H]1CCCc2nn(-c3ccnc(C(F)(F)F)c3)cc21 [Compound I-53a, (S)-2-(1-Methyl-3-(trifluoromethyl)-1H-pyrazol-5-yl)-N-(2-(2-(trifluoromethyl)pyridin-4-yl)-4,5,6,7-tetrahydro-2H-indazol-4-yl)acetamide]	> 1000 nM
Cc1cc(C#N)cc(C(=O)N[C@@H]2CCn3nc(-c4cc(C(F)(F)F)ncc4F)cc32)c1 [Compound I-486b]	250 to 500 nM
Cc1ccccc1C(=O)NC1CCCc2nn(-c3ccnc(C(F)(F)F)c3)cc21 (racemic) [Compound I-29, (rac)-2-Methyl-N-(2-(2-(trifluoromethyl)pyridin-4-yl)-4,5,6,7-tetrahydro-2H-indazol-4-yl)benzamide]	> 1000 nM
Cc1nn(C(F)(F)F)cc1C(=O)N[C@H]1CCCn2nc(-c3ccnc(C(F)(F)F)c3)cc21 [Compound I-325a, (S)-3-Methyl-1-(trifluoromethyl)-N-(2-(2-(trifluoromethyl)pyridin-4-yl)-4,5,6,7-tetrahydropyrazolo[1,5-a]pyridin-4-yl)-1H-pyrazole-4-carboxamide]	< 250 nM
O=C(N[C@H]1CCCn2nc(-c3ccnc(C(F)(F)F)c3)cc21)c1cccc(F)c1F [Compound I-405a]	< 250 nM

Compound	IC50
N#Cc1cccc(C(=O)N[C@H]2CCCc3oc(-c4ccnc(C(F)(F)F)c4)nc32)c1 [Compound I-297a, (S)-3-Cyano-N-(2-(2-(trifluoromethyl)pyridin-4-yl)-4,5,6,7-tetrahydrobenzo[d]oxazol-4-yl)benzamide]	< 250 nM
COc1cc(-c2nc3n(n2)CCC[C@@H]3NC(=O)c2cc(C(F)(F)F)nn2C)ccn1 [Compound I-260a, (S)—N-(2-(2-Methoxypyridin-4-yl)-5,6,7,8-tetrahydro-[1,2,4]triazolo[1,5-a]pyridin-8-yl)-1-methyl-3-(trifluoromethyl)-1H-pyrazole-5-carboxamide]	250 to 500 nM
COc1cc(C(=O)N[C@H]2CCCn3nc(-c4ccnc(C(F)(F)F)c4)cc32)nc(C(F)(F)F)n1 [Compound I-424a]	< 250 nM
Cn1nc(C(F)(F)F)cc1C(=O)N[C@@H]1CCn2nc(-c3ccnc(C4CC4)c3)cc21 [Compound I-68b]	500 to 1000 nM
CCOc1cc(-n2cc3c(n2)CCCC[C@@H]3NC(=O)c2cccc(C)c2)ccn1 [Compound I-361a]	< 250 nM
Cc1nc(C(F)(F)F)oc1C(=O)N[C@H]1CCc2cnc(-c3ccnc(C(F)(F)F)c3)cc21 [Compound I-192a, (S)-4-Methyl-2-(trifluoromethyl)-N-(3-(2-(trifluoromethyl)pyridin-4-yl)-6,7-dihydro-5H-cyclopenta[c]pyridin-5-yl)oxazole-5-carboxamide]	250 to 500 nM
COc1cc(-c2cc3n(n2)CC[C@@H]3NC(=O)c2cc(F)cc(Cl)c2)ccn1 [Compound I-253a, (S)-3-Chloro-5-fluoro-N-(2-(2-methoxypyridin-4-yl)-5,6-dihydro-4H-pyrrolo[1,2-b]pyrazol-4-yl)benzamide]	< 250 nM
COc1cc(C(=O)N[C@@H]2CCn3nc(-c4cc(C(F)(F)F)ncc4F)cc32)ccn1 [Compound I-485b]	< 250 nM
Cn1nc(C(F)(F)F)nc1C(=O)N[C@H]1CCCn2nc(-c3ccnc(C(C)(F)F)c3)cc21 [Compound I-551a, (S)-N-(2-(2-(1,1-Difluoroethyl)pyridin-4-yl)-4,5,6,7-tetrahydropyrazolo[1,5-a]pyridin-4-yl)-1-methyl-3-(trifluoromethyl)-1H-1,2,4-triazole-5-carboxamide]	< 250 nM
COc1cc(-c2cc3n(n2)CCC[C@@H]3NC(=O)c2cccc(C#N)c2)c(Cl)cn1 [Compound I-239a, (S)-N-(2-(5-Chloro-2-methoxypyridin-4-yl)-4,5,6,7-tetrahydropyrazolo[1,5-a]pyridin-4-yl)-3-cyanobenzamide]	< 250 nM
N#Cc1cc(F)cc(C(=O)N[C@H]2CCCn3nc(-c4ccnc(C5CC5)c4)cc32)c1 [Compound I-262a]	< 250 nM
Cc1cccc(C(=O)N[C@H]2CCCc3cnc(-c4ccnc(C(F)(F)F)c4)cc32)c1 [Compound I-394a]	250 to 500 nM
N#Cc1cccc(C(=O)N[C@H]2CCc3nn(-c4ccnc(C(F)(F)F)c4)cc32)c1 [Compound I-454a]	< 250 nM
COc1cc(-c2cc3n(n2)CC[C@@H]3NC(=O)c2cc(C(F)(F)F)nn2C)ccn1 [Compound I-427a]	< 250 nM
Cn1nc(C(F)F)cc1C(=O)NC1CCCc2nn(-c3ccnc(C(F)(F)F)c3)cc21 (racemic) [Compound I-12, (rac)-3-(Difluoromethyl)-1-methyl-N-(2-(2-(trifluoromethyl)pyridin-4-yl)-4,5,6,7-tetrahydro-2H-indazol-4-yl)-1H-pyrazole-5-carboxamide]	< 250 nM
CCOc1cc(-n2cc3c(n2)CCCC3NC(=O)c2cc(C)cc(C(F)(F)F)c2)ccn1 (racemic) [Compound I-15, (rac)-N-(2-(2-Ethoxypyridin-4-yl)-4,5,6,7-tetrahydro-2H-indazol-4-yl)-3-methyl-5-(trifluoromethyl)benzamide]	< 250 nM
Cn1nc(C(F)(F)F)cc1C(=O)N[C@@H]1CCCc2sc(-c3ccnc(C(F)(F)F)c3)nc21 [Compound I-80b]	> 1000 nM
COc1cc(-c2cc3n(n2)CCCC[C@@H]3NC(=O)c2ccc(F)c(C#N)c2)ccn1 [Compound I-256a, (S)-3-Cyano-4-fluoro-N-(2-(2-methoxypyridin-4-yl)-5,6,7,8-tetrahydro-4H-pyrazolo[1,5-a]azepin-4-yl)benzamide]	< 250 nM
COc1cc(-c2cc3n(n2)CC[C@@H]3NC(=O)c2cc(C#N)cc(C(F)(F)F)c2)ccn1 [Compound I-285a, (S)-3-Cyano-N-(2-(2-methoxypyridin-4-yl)-5,6-dihydro-4H-pyrrolo[1,2-b]pyrazol-4-yl)-5-(trifluoromethyl)benzamide]	< 250 nM
Cn1nc(C2CC2)cc1C(=O)N[C@@H]1CCCCc2nn(-c3ccnc(C(F)(F)F)c3)cc21 [Compound I-369b]	> 1000 nM
CCOc1cc(-n2cc3c(n2)CCCC3NC(=O)c2cccc(C(F)(F)F)c2)ccn1 (racemic) [Compound I-18, (rac)-N-(2-(2-Ethoxypyridin-4-yl)-4,5,6,7-tetrahydro-2H-indazol-4-yl)-3-(trifluoromethyl)benzamide]	< 250 nM
